Data published in patent publication US8415482B2, “Proline derivatives” (National Health Research Institutes, priority 2009, dated 2013).
pEC50: −log10 of the molar value.

System: HCV replication
Experiment: Inhibiting HCV replication, Ava5-EG(Δ4AB)SEAP reporter-based cell line, SEAP activity
Conditions: Hepatitis C virus, 72 h, Ava5-EG(Δ4AB)SEAP cells; 48 hours + additional 24 hours treatment; SEAP activity in culture medium; read-out: EC50 values (i.e., the concentration of a test compound at which 50% HCV replication is inhibited)
Protocol: The inhibitory activity of compounds of this invention against HCV replication was assessed using Ava5-EG(Δ4AB)SEAP, a reporter-based cell line, according to the methods described in Lee et al., Anal. Biochem., 316:162-70 (2003) and Lee et al., J. Virol Methods, 116:27-33 (2004). Briefly, Ava5-EG(Δ4AB)SEAP cells were cultured in a medium containing 500 μg/mL G418 (geneticin) and 10 μg/mL blasticidin in a 5% CO2 incubator. G418 and blasticidin were purchased from Invitrogen (Carlsbad, Calif.). The cells were seeded in a 96-well plate (5×10^3 cells/100 μL-well) and incubated at 37° C. for 24 hours. They were then treated with a solution of a test compound in DMSO at various concentrations. After 48 hours, the culture medium in each well was replaced with a fresh medium containing the test compound at the same concentrations to remove secreted alkaline phosphatase (SEAP) accumulated in the culture medium, if any. The cells were cultured for additional 24 hours. The culture medium was then collected and tested for SEAP activity using a Phospha-Light assay kit (Tropix, Foster, Calif., USA).

| SMILES | pEC50 |
| --- | --- |
| O=C(N[C@@H](C(=O)N1CCC[C@H]1c1ncc(-c2ccc(-c3ccc(-c4cnc([C@@H]5CCCN5C(=O)[C@H](NC(=O)c5ccncc5)c5ccccc5)s4)cc3)cc2)s1)c1ccccc1)c1ccncc1 [Compound 84a] | ≥ 6.30 |
| O=C(N[C@@H](C(=O)N1CCC[C@H]1c1nc(-c2ccc(-c3ccc(-c4csc([C@@H]5CCCN5C(=O)[C@H](NC(=O)C5CC5)c5ccccc5)n4)cc3)cc2)no1)c1ccccc1)C1CC1 [Compound 30a] | ≥ 6.30 |
| O=C(N[C@H](C(=O)N1CCC[C@H]1c1ncc(-c2ccc(-c3ccc(-c4cnc([C@@H]5CCCN5C(=O)[C@H](NC(=O)C5CCC5)c5ccccc5)s4)cc3)cc2)s1)c1ccccc1)C1CCC1 [Compound 67a] | ≥ 6.30 |
| CCCCCC(=O)N[C@@H](C(=O)N1CCC[C@H]1c1ncc(-c2ccc(-c3ccc(-c4cnc([C@@H]5CCCN5C(=O)[C@H](NC(=O)CCCCC)c5ccccc5)s4)cc3)cc2)s1)c1ccccc1 [Compound 58a] | ≥ 6.30 |
| O=C(N[C@@H](C(=O)N1CCC[C@H]1c1ncc(-c2ccc(-c3ccc(-c4cnc([C@@H]5CCCN5C(=O)[C@H](NC(=O)C5CC5)c5ccccc5)s4)cc3)cc2)s1)c1ccccc1)C1CC1 [Compound 7a-A, N,N′-(1R,1′R)-2,2′-((2S,2′S)-2,2′-(5,5′-(biphenyl-4,4′-diyl)bis(thiazole-5,2-diyl))bis(pyrrolidine-2,1-diyl))bis(2-oxo-1-phenylethane-2,1-diyl)dicyclopropanecarboxamide] | ≥ 6.30 |
| O=C(N[C@@H](C(=O)N1CCC[C@H]1c1nc(-c2ccc(-c3ccc(-c4noc([C@@H]5CCCN5C(=O)[C@H](NC(=O)C5CC5)c5ccccc5)n4)cc3)cc2)c[nH]1)c1ccccc1)C1CC1 [Compound 26a] | ≥ 6.30 |
| O=C(Cc1ccccc1)N[C@@H](C(=O)N1CCC[C@H]1c1ncc(-c2ccc(-c3ccc(-c4cnc([C@@H]5CCCN5C(=O)[C@H](NC(=O)Cc5ccccc5)c5ccccc5)s4)cc3)cc2)s1)c1ccccc1 [Compound 74a] | ≥ 6.30 |
| O=C(N[C@@H](C(=O)N1CCC[C@H]1c1ncc(-c2ccc(-c3ccc(-c4cnc([C@@H]5CCCN5C(=O)[C@H](NC(=O)N5CCOCC5)c5ccccc5)s4)cc3)cc2)s1)c1ccccc1)N1CCOCC1 [Compound 7a-B] | ≥ 6.30 |
| O=C(N[C@@H](C(=O)N1CCC[C@H]1c1nc(-c2ccc(-c3ccc(-c4cnc([C@@H]5CCCN5C(=O)[C@H](NC(=O)C5CC5)c5ccccc5)s4)cc3)cc2)no1)c1ccccc1)C1CC1 [Compound 34a] | ≥ 6.30 |
| CC(C)(C)OC(=O)N[C@@H](C(=O)N1CCC[C@H]1c1nc(-c2ccc(-c3ccc(-c4cnc([C@@H]5CCCN5C(=O)[C@H](NC(=O)OC(C)(C)C)c5ccccc5)s4)cc3)cc2)cs1)c1ccccc1 [Compound 45a] | ≥ 6.30 |
| O=C(N[C@@H](C(=O)N1CCC[C@H]1c1ncc(-c2ccc(-c3ccc(-c4cnc([C@@H]5CCCN5C(=O)[C@H](NC(=O)c5ccco5)c5ccccc5)s4)cc3)cc2)s1)c1ccccc1)c1ccco1 [Compound 76a] | ≥ 6.30 |
| CC(=O)N[C@H](C(=O)N1CCC[C@H]1c1ncc(-c2ccc(-c3ccc(-c4cnc([C@@H]5CCCN5C(=O)[C@H](NC(C)=O)c5ccccc5)s4)cc3)cc2)s1)c1ccccc1 [Compound 51a] | ≥ 6.30 |
| O=C(N[C@@H](C(=O)N1C[C@H](F)C[C@H]1c1ncc(-c2ccc(-c3ccc(-c4cnc([C@@H]5C[C@@H](F)CN5C(=O)[C@H](NC(=O)N5CCOCC5)c5ccccc5)s4)cc3)cc2)s1)c1ccccc1)N1CCOCC1 [Compound 7b-B] | ≥ 6.30 |
| CC(C)(C)OC(=O)N[C@@H](C(=O)N1CCC[C@H]1c1nc(-c2ccc(-c3ccc(-c4csc([C@@H]5CCCN5C(=O)[C@H](NC(=O)OC(C)(C)C)c5ccccc5)n4)cc3)cc2)no1)c1ccccc1 [Compound 29a] | ≥ 6.30 |
| O=C(N[C@@H](C(=O)N1C[C@@H](F)C[C@H]1c1ncc(-c2ccc(-c3ccc(-c4cnc([C@@H]5C[C@H](F)CN5C(=O)[C@H](NC(=O)C5CC5)c5ccccc5)s4)cc3)cc2)s1)c1ccccc1)C1CC1 [Compound 7c-A] | ≥ 6.30 |
| CC(C)(C)OC(=O)N[C@@H](C(=O)N1CCC[C@H]1c1ncc(-c2ccc(-c3ccc(-c4cnc([C@@H]5CCCN5C(=O)[C@H](NC(=O)OC(C)(C)C)c5ccccc5)s4)cc3)cc2)s1)c1ccccc1 [Compound 6a, di-tert-butyl (1R,1′R)-2,2′-((2S,2′S)-2,2′-(5,5′-(biphenyl-4,4′-diyl)bis(thiazole-5,2-diyl))bis(pyrro-lidine-2,1-diyl))bis(2-oxo-1-phenylethane-2,1-diyl)dicarbamate] | ≥ 6.30 |
| O=C(N[C@@H](C(=O)N1CCC[C@H]1c1ncc(-c2ccc(-c3ccc(-c4csc([C@@H]5CCCN5C(=O)[C@H](NC(=O)C5CC5)c5ccccc5)n4)cc3)cc2)[nH]1)c1ccccc1)C1CC1 [Compound 38a] | ≥ 6.30 |
| O=C(N[C@@H](C(=O)N1C[C@@H](F)C[C@H]1c1ncc(-c2ccc(-c3ccc(-c4cnc([C@@H]5C[C@H](F)CN5C(=O)[C@H](NC(=O)N5CCOCC5)c5ccccc5)s4)cc3)cc2)s1)c1ccccc1)N1CCOCC1 [Compound 7c-B] | ≥ 6.30 |
| O=C(N[C@@H](C(=O)N1CCC[C@H]1c1ncc(-c2ccc(-c3ccc(-c4cnc([C@@H]5CCCN5C(=O)[C@H](NC(=O)C5CC5)c5ccccc5)s4)cc3)cc2)[nH]1)c1ccccc1)C1CC1 [Compound 42a, N—((R)-2-((S)-2-(5-(4′-(2-((S)-1-((R)-2-(cyclopropanecarboxamido)-2-phenylacetyl)pyrrolidin-2-yl)-1H-imidazol-4-yl)biphenyl-4-yl)thiazol-2-yl)pyrrolidin-1-yl)-2-oxo-1-phenyl-ethyl)cyclopropanecarboxamide] | ≥ 6.30 |
| CC(C)(C)OC(=O)N[C@@H](C(=O)N1CCC[C@H]1c1ncc(-c2ccc(-c3ccc(-c4csc([C@@H]5CCCN5C(=O)[C@H](NC(=O)OC(C)(C)C)c5ccccc5)n4)cc3)cc2)[nH]1)c1ccccc1 [Compound 37a] | ≥ 6.30 |
| O=C(N[C@@H](C(=O)N1C[C@H](F)C[C@H]1c1ncc(-c2ccc(-c3ccc(-c4cnc([C@@H]5C[C@@H](F)CN5C(=O)[C@H](NC(=O)C5CC5)c5ccccc5)s4)cc3)cc2)s1)c1ccccc1)C1CC1 [Compound 7b-A] | ≥ 6.30 |
| CC(C)(C)OC(=O)N[C@@H](C(=O)N1CCC[C@H]1c1nc(-c2ccc(-c3ccc(-c4noc([C@@H]5CCCN5C(=O)[C@H](NC(=O)OC(C)(C)C)c5ccccc5)n4)cc3)cc2)c[nH]1)c1ccccc1 [Compound 25a] | ≥ 6.30 |
| CC(C)(C)OC(=O)N[C@@H](C(=O)N1CCC[C@H]1c1nc(-c2ccc(-c3ccc(-c4cnc([C@@H]5CCCN5C(=O)[C@H](NC(=O)OC(C)(C)C)c5ccccc5)s4)cc3)cc2)no1)c1ccccc1 [Compound 33a] | ≥ 6.30 |
| O=C(N[C@@H](C(=O)N1CCC[C@H]1c1nc(-c2ccc(-c3ccc(-c4cnc([C@@H]5CCCN5C(=O)[C@H](NC(=O)C5CC5)c5ccccc5)s4)cc3)cc2)cs1)c1ccccc1)C1CC1 [Compound 46a] | ≥ 6.30 |
| CC(C)C(=O)N[C@H](C(=O)N1CCC[C@H]1c1ncc(-c2ccc(-c3ccc(-c4cnc([C@@H]5CCCN5C(=O)[C@H](NC(=O)C(C)C)c5ccccc5)s4)cc3)cc2)s1)c1ccccc1 [Compound 61a] | ≥ 6.30 |
| CC(C)(C)OC(=O)N[C@@H](C(=O)N1CCC[C@H]1c1ncc(-c2ccc(-c3ccc(-c4cnc([C@@H]5CCCN5C(=O)[C@H](NC(=O)OC(C)(C)C)c5ccccc5)s4)cc3)cc2)[nH]1)c1ccccc1 [Compound 41a] | ≥ 6.30 |
| O=C(N[C@@H](C(=O)N1CCC[C@H]1c1ncc(-c2ccc(-c3ccc(-c4cnc([C@@H]5CCCN5C(=O)[C@H](NC(=O)C5CCCCC5)c5ccccc5)s4)cc3)cc2)s1)c1ccccc1)C1CCCCC1 [Compound 70a] | ≥ 6.30 |
